# Measured values taken from patent publication US9018224B2, “Substituted cyclopropyl compounds useful as GPR119 agonists” (Merck Sharp & Dohme Corp., priority 2011, dated 2015).
# Biological target: T1, human GPR119 (Homo sapiens, UniProt Q8TDV5)
# T1 sequence (Q8TDV5 1-308 limits assumed): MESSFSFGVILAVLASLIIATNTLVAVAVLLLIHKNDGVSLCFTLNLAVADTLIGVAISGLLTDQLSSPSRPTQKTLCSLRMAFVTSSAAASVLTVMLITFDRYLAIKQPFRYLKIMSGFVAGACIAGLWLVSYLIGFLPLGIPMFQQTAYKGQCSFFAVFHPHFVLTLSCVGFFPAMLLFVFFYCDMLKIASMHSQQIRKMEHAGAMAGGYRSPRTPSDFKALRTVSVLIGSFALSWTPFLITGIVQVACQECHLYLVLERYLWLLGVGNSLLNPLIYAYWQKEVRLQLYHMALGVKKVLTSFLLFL
# Assay: Measurement of GPR119 signaling by cAMP (LANCE cAMP kit or HTRF) in HEK293 cells transfected with human GPR119
# Type: cell-based
# Details: agonist cAMP response in HEK293 cells stably transfected with human GPR119; patent does not say which of the two cAMP formats (LANCE or HTRF)
# Procedure, shortened: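 LANCE TR-FRET cAMP readout; detection with Eu-SA/biotin-cAMP tracer for 3 h, signal converted to cAMP via standard curve, duplicates, 4-parameter fit vs DMSO basal and internal agonist maximum.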
row,EC50,Structure (SMILES)
1,0.26 nM,CCOc1cnc(N2CCC([C@H]3C[C@H]3CCOc3cc(F)c(CC(=O)N(C)C)c(F)c3)CC2)nc1 [Example 234]
2,0.26 nM,CCOc1cnc(N2CCC([C@H]3C[C@H]3CCOc3cc(F)c(CC(=O)N4CCOCC4)c(F)c3)CC2)nc1 [Example 235]
3,0.12 nM,CCOc1cnc(N2CCC([C@H]3C[C@H]3CCOc3cc(F)c(CC(=O)N4CC(OC)C4)c(F)c3)CC2)nc1 [Example 236]
4,0.94 nM,"COCc1ccc(N2CCC([C@H]3C[C@H]3CCOc3ccc(CC(=O)N4CCC4)c(F)c3)CC2)nc1 [Example 237, 1-(azetidin-1-yl)-2-(2-fluoro-4-{2-[(1S,2R)-2-{1-[5-(methoxymethyl)pyridin-2-yl]piperidin-4-yl}cyclopropyl]ethoxy}phenyl)ethanone]"
5,7.4 nM,"CCc1cnc(N2CCC([C@H]3C[C@H]3CCOc3ccc(CC(=O)N4CCC4)cn3)CC2)nc1 [Example 241, 1-(azetidin-1-yl)-2-[6-(2-{(1S,2R)-2-[1-(5-ethylpyrimidin-2-yl)piperidin-4-yl]cyclopropyl}ethoxy)pyridin-3-yl)ethanone]"
6,2.5 nM,"Cc1cnc(Cc2ccc(OCC[C@@H]3C[C@@H]3C3CCN(c4ncc(Cl)cn4)CC3)cc2F)o1 [Example 243, 5-chloro-2-{4-[(1R,2S)-2-(2-{3-fluoro-4-[(5-methyl-1,3-oxazol-2-yl)methyl]phenoxy}ethyl)cyclopropyl]piperidin-1-yl}pyrimidine]"
7,5.1 nM,"Cc1nnc(Cc2ccc(OCC[C@@H]3C[C@@H]3C3CCN(c4ncc(Cl)cn4)CC3)cc2F)o1 [Example 244, 5-chloro-2-{4-[(1R,2S)-2-(2-{3-fluoro-4-[(5-methyl-1,3,4-oxadizol-2-yl)methyl]phenoxy}ethyl)cyclopropyl]piperidin-1-yl}pyrimidine]"
8,4.1 nM,"Fc1cc(OCC[C@@H]2C[C@@H]2C2CCN(c3ncc(Cl)cn3)CC2)ccc1Cc1nnco1 [Example 245, 5-chloro-2-{4-[(1R,2S)-2-(2-{3-fluoro-4-[(1,3,4-oxadizol-2-yl)methyl]phenoxy}ethyl)cyclopropyl]piperidin-1-yl}pyrimidine]"
9,7.7 nM,COCc1cnc(N2CCC([C@H]3C[C@H]3CCOc3ccc(Cc4nnco4)c(F)c3)CC2)nc1 [Example 246]
10,6.7 nM,COCc1cnc(N2CCC([C@H]3C[C@H]3CCOc3cc(F)c(Cc4nnco4)c(F)c3)CC2)nc1 [Example 247]
11,4.2 nM,"COCc1cnc(N2CCC([C@H]3C[C@H]3CCOc3ccc(Cc4nncs4)c(F)c3)CC2)nc1 [Example 248, 2-[4-((1R,2S)-2-{2-[3-fluoro-4-(1,3,4-thiadiazol-2-ylmethyl)phenoxy]ethyl}cyclopropyl)piperidin-1-yl]-5-(methoxymethyl)pyrimidine]"
12,5.5 nM,COCc1cnc(N2CCC([C@H]3C[C@H]3CCOc3ccc(CC(=O)N4CCC4)cc3F)CC2)nc1 [Example 251]

# Continued, compound first:
row,Structure (SMILES),EC50
1,COCc1cnc(N2CCC([C@H]3C[C@H]3CCOc3cc(F)c(CC(=O)N4CC(OC)C4)c(F)c3)CC2)nc1 [Example 225],0.35 nM
2,COCc1cnc(N2CCC([C@H]3C[C@H]3CCOc3cc(F)c(CC(=O)N(C)C4COC4)c(F)c3)CC2)nc1 [Example 226],0.41 nM
3,CNC(=O)Cc1c(F)cc(OCC[C@@H]2C[C@@H]2C2CCN(c3ncc(COC)cn3)CC2)cc1F [Example 227],2.5 nM
4,COCc1cnc(N2CCC([C@H]3C[C@H]3CCOc3cc(F)c(CC(=O)N4CCCC4)c(F)c3)CC2)nc1 [Example 228],0.2 nM
5,"CCOc1cnc(N2CCC([C@H]3C[C@H]3CCOc3cc(F)c(CC(=O)N4CCC4)c(F)c3)CC2)nc1 [Example 229, 1-(azetidin-1-yl)-2-[4-(2-{(1S,2R)-2-[1-(5-ethoxypyrimidin-2-yl)piperidin-4-yl]cyclopropyl}ethoxy)-2,6-difluorophenyl]ethanone]",0.14 nM
6,CCOc1cnc(N2CCC([C@H]3C[C@H]3CCOc3cc(F)c(CC(=O)N4CC(F)C4)c(F)c3)CC2)nc1 [Example 230],0.11 nM
7,CCOc1cnc(N2CCC([C@H]3C[C@H]3CCOc3cc(F)c(CC(=O)N4CC(F)(F)C4)c(F)c3)CC2)nc1 [Example 231],0.13 nM
8,CCOc1cnc(N2CCC([C@H]3C[C@H]3CCOc3cc(F)c(CC(=O)N4CC(O)C4)c(F)c3)CC2)nc1 [Example 232],0.55 nM
9,CCOc1cnc(N2CCC([C@H]3C[C@H]3CCOc3cc(F)c(CC(=O)N4CC(C)(O)C4)c(F)c3)CC2)nc1 [Example 233],0.66 nM
10,O=C(Cc1ccc(OCC[C@@H]2C[C@@H]2C2CCN(c3ncc(Cl)cn3)CC2)nc1)N1CCC1 [Example 242],9.4 nM
11,O=C(Cc1ccc(OCC[C@@H]2C[C@@H]2C2CCN(c3ncc(Cl)cn3)CC2)c(F)c1)N1CCC1 [Example 250],2.2 nM
